From PMC10650714, “Double Attack to Oxidative Stress in Neurodegenerative Disorders: MAO-B and Nrf2 as Elected Targets” (Molecules, 2023)

Legend:
[1] = system: SH-SY5Y human neuroblastoma cells; test: Cell viability, MTT assay; type: cell-based; conditions: 0.5 to 50 μM, 24 h
Procedure: To define the concentration range to use in the in vitro experimental settings, the cytotoxicity of compounds 1–5 was evaluated in SH-SY5Y human neuroblastoma cells, in comparison with CAPE, the reference compound for Nrf2 activation (Figure 5). Cells were treated with compounds at concentrations ranging from 0.5 to 50 μM for 24 h and cell viability was evaluated via MTT assay. All compounds were well tolerated at each concentration, resulting in no or very low reduction in cell viability.
MTT assay, based on the mitochondrial dehydrogenase activity that reduces 3-(4,5-dimethylthiazol-2-yl)-2,5-diphenyl-tetrazolium bromide (MTT, Sigma, St Louis, MO, USA) is one of the standard assays used to measure the cellular metabolic activity as an indicator of cell viability, proliferation and cytotoxicity in a quantitative colorimetric assay. At day 0, SH-SY5Y cells were plated at a density of 2.5 × 10^4 viable cells per well in 96-well plates. After treatment, according to the experimental setting, cells were exposed to an MTT solution in serum-free medium (1 mg/mL). Following 4 h of incubation with MTT and treatment with SDS for 24 h, cell viability reduction was quantified by using a Synergy HT multidetection microplate reader (Bio-Tek).

recombinant hMAO-B = molecular target: T1, recombinant hMAO-B (Homo sapiens, UniProt P27338); test: Time-dependent inhibition study on hMAO-B; type: biochemical; conditions: pre-incubation 0 to about 20 min, 5 and 20 µM
T1 construct: purchased Fluka-Sigma-Aldrich s.r.l; (Italy); host or cells: Baculovirus infected BT1 cells
T1 sequence (P27338 1-520): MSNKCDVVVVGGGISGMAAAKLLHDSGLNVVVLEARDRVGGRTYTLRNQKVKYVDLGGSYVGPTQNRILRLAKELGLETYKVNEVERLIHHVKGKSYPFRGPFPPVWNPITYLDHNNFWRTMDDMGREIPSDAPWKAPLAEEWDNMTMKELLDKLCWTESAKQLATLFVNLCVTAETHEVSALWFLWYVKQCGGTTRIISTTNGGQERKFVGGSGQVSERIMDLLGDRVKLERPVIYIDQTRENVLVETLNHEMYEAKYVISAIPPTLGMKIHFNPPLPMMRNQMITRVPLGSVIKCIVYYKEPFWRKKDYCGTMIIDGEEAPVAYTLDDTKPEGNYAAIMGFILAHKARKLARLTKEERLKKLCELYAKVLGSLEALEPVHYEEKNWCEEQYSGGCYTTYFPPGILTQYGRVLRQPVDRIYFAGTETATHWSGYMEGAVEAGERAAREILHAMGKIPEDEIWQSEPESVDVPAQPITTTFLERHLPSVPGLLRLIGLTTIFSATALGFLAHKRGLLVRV
Procedure: Time-dependent inhibition studies. The time-dependent inactivation by 2 was performed as previously reported. In detail, recombinant hMAO-B was pre-incubated in the K/Pi buffer for periods from 0 to about 20 min, at 37 °C in the absence (control sample) and in the presence of compound 2 (5 and 20 µM). After various pre-incubation times (at least 5 times after mixing of enzyme and inhibitor), the residual enzyme activity was determined: an aliquot of sample was withdrawn and diluted in the assay buffer (50-fold dilution) and then, the substrate was added under a “saturating” condition (Kyn = 300 µM).

O=C(/C=C/c1ccc(O)c(O)c1)Oc1ccc(CC2SC(=O)NC2=O)cc1 (centres unmarked) [Compound 2, 4-((2,4-Dioxothiazolidin-5-yl)methyl)phenyl (E)-3-(3,4-Dihydroxyphenyl)acrylate]
cell viability / cytotoxicity [1]: not cytotoxic | time-dependent inhibition / inactivation of hMAO-B (recombinant hMAO-B): no inactivation and no time-dependent inhibition
